Laboratory results taken from patent US10428071B2, “Carboline derivative serving as bromodomain inhibitor” (NINGBO WENDA PHARMA TECHNOLOY LTD., priority 2016, dated 2019).

Columns and labels:
H187 cell line = test: Cell activity detection, Alamar-Blue, H187; assay type: cell-based; conditions: Homo sapiens, NCI-H187, 72 h incubation
Procedure: (§1) H211 and H187 cell lines were purchased from ATCC and tested in accordance with the Alamar-Blue test kit instructions. The drugs were dissolved in 50 mM stock solution with DMSO and stored in a freezer at −20° C. The test drug stock solution was serially diluted with DMSO graded in a ratio of 1:3. Then DMSO diluted drug was serially diluted into a drug solution in 10× final concentration with cell complete culture medium. The 96-well cell culture plate was removed from the incubator, and 10 μl of culture medium containing a series of different concentrations of drug (10× final concentration) was added to a 96-well plate, and incubated at 37° C. for 72 h in CO2 incubator. The inhibition rate was plotted using GraphPad Prism 5.0 and MATILAB software by a non-linear regression method to obtain a series of dose-response curves from which the IC50 of the test sample was obtained, Table 2.

[1] = target: T1, BRD4 (BD1+BD2) bromodomain protein (Homo sapiens, UniProt O60885); test: TR-FRET BRD4 activity assay (Cayman kit); assay type: binding; conditions: room temperature 2 hours
T1 construct: BRD4 (BD1+BD2) bromodomain protein; purchased Cayman
Procedure: Detection of TR-FRET BRD4 Activity:
The BRD4 activity assay was performed according to the TR-FRET method in the Cayman kit. Dilute 3×BRD TR-FRET Assay Buffer 1 with ultrapure water to 1×BRD TR-FRET Assay Buffer for further use. 1×BRD TR-FRET Assay Buffer was used to dilute Tb-labeled donor and dye-labeled acceptor in 100-fold. 5 μl of diluted Tb-labeled donor and dye-labeled acceptor were added respectively to the sample well, negative control well and positive control well. The configured 1×BRD TR-FRET Assay Buffer was used to formulate a 10% DMSO solution (excessive DMSO concentration would affect the reaction, and the final concentration of DMSO was controlled at 1%), then test compounds are diluted with 10% DMSO solution to give the compound's initial concentrations of 1 μM and 100 nM, IC50 test was started from 10 μM or 100 μM, diluted in 3-fold to give 8 or 10 concentration points. In addition to the control wells, 2 μl of the diluted test compound solution was added to the wells used, and 2 μl of the previously prepared 10% DMSO solution was added to the control wells. The BET Bromodomain Ligand and Non-acetylated Ligand 1 were respectively diluted in 40 fold with 1×BRD TR-FRET Assay Buffer. 5 μl of diluted BET Bromodomain Ligand was added to sample wells and positive control wells, and 5 μl of diluted non-acetylated ligand 1 was added into the negative control wells. 1×BRD TR-FRET Assay Buffer was used to dilute BRD4 (BD1+BD2) bromodomain protein to 6 ng/μl (18 ng/well), and 3 μl of diluted BRD4 (BD1+BD2) bromodomain protein was added to each well. The plate was sealed and mixed well. The reaction was performed at room temperature for 2 hours, and then fluorescence signals (320 nm stimulation, 665 nm, 615 nm emission) were detected with the ENVISION (Perkinelmer) instrument. The inhibition rate was calculated for each well by positive control wells and negative control wells, and average value was calculated for multiple wells. The results were plotted with Software PRISM 5.0 to fit the half inhibitory activity (IC50) for each test compound, Table 1.

H211 cell line = test: Cell activity detection, Alamar-Blue, H211; assay type: cell-based; conditions: Homo sapiens, NCI-H211, 72 h incubation
Procedure: as §1

MDA-MB-231 cell line = test: Cell activity detection, CCK-8, MDA-MB-231; assay type: cell-based; conditions: Homo sapiens, CCK-8, 72 hours incubation
Procedure: MDA-MB-231 cell line was purchased from Shanghai Cell Resource Center of the Chinese Academy of Sciences, and was performed according to the method in the kit of CCK-8. The cells in the logarithmic growth phase were collected, counted, and the cells were re-suspended in complete medium to adjust the cell concentration to a suitable concentration (determined according to cell density optimization test results), inoculated in 96-well plates, and each well was added with 100 μl of cell suspension. Cells were incubated at 37° C., in a 100% relative humidity and 5% CO2 incubator for 24 hours. The compound was diluted to the appropriate effective concentration determined with medium and the cells were added by 25 μl/well. The final concentration of the compound was diluted to from 1 μM to 0 μM graded in three-fold dilution to give 10 concentration points. The cells were incubated at 37° C., in a 100% relative humidity and 5% CO2 incubator for 72 hours. 1/10 volume of CCK-8 was added directly to the cell culture medium and incubated in a 37° C. incubator for 2-4 hours. The absorbance at 450 nm was determined on a SpectraMax M5 Microplate Reader after gentle shaking. Absorbance at 650 nm was taken as the reference. The IC50 curve fitting was performed using soft Graphpad Prism 5 and the IC50 value was calculated.

Compound	IC50 (H187 cell line) [nM]	IC50 [1] [nM]	IC50 (H211 cell line) [nM]	IC50 (MDA-MB-231 cell line) [nM]
Cc1nnn(C)c1-c1cnc2c3c4c(ccc3n([C@H](c3ccccc3)C3CCOCC3)c2c1)C(=O)N(C)C4 [Compound 3]	35	1.9	5.2	
Cc1nnn(C)c1-c1cnc2c3c4cnn(C)c4ccc3n([C@H](c3ccccc3)C3CCOCC3)c2c1 [Compound 6]	5.5	1	2	1.6
Cc1nnn(C)c1-c1cnc2c3c4c(ccc3n([C@H](c3ccccc3)C3CCOCC3)c2c1)cnn4C [Compound 7]	6.5	5.2	3.5	4.6
Cc1nnn(C)c1-c1cnc2c3cc4c(cc3n([C@H](c3ccccc3)C3CCOCC3)c2c1)CN(C)C4=O [Compound 2]	19	2.2	8.5	
Cc1nnn(C)c1-c1cnc2c3c4cc[nH]c4ccc3n([C@H](c3ccccc3)C3CCOCC3)c2c1 [Compound 10]	8.5	1.5	32	8.1
Cc1nnn(C)c1-c1cnc2c3c4cnn(C)c4c(F)cc3n([C@H](c3ccccc3)C3CCOCC3)c2c1 [Compound 8]	6.5	2.6	4.2	3.2
[2H]C([2H])([2H])c1nnn(C)c1-c1cnc2c3c4cnn(C)c4ccc3n([C@H](c3ccccc3)C3CCOCC3)c2c1 [Compound 13]	5.5	1	2	1.8
Cc1nnn(C)c1-c1cnc2c3cc4c(cnn4C)cc3n([C@H](c3ccccc3)C3CCOCC3)c2c1 [Compound 4]	37	4.6	11.2	
[2H]C([2H])([2H])c1nnn(C)c1-c1cnc2c3c4cn[nH]c4ccc3n([C@H](c3ccccc3)C3CCOCC3)c2c1 [Compound 14]	5.5	1	4	3.5
Cc1nnn(C)c1-c1cnc2c3c4ccn(C)c4ccc3n([C@H](c3ccccc3)C3CCOCC3)c2c1 [Compound 9]	7	3.5	6.7	
Cc1nnn(C)c1-c1cnc2c3c4cccnc4ccc3n([C@H](c3ccccc3)C3CCOCC3)c2c1 [Compound 12]	7.5	3.2	12	
Cc1nnn(C)c1-c1cnc2c3c4cn[nH]c4ccc3n([C@H](c3ccccc3)C3CCOCC3)c2c1 [Compound 11]	5.5	1	4.2	3.7
Cc1nnn(C)c1-c1cnc2c3cc4cnn(C)c4cc3n([C@H](c3ccccc3)C3CCOCC3)c2c1 [Compound 5]	35	3.8	29.5	
Cc1nnn(C)c1-c1cnc2c3cc4c(cc3n([C@H](c3ccccc3)C3CCOCC3)c2c1)C(=O)N(C)C4 [Compound 1]	21	3.6	7.2	
